Reference: patent US10556844B2, “Pyrazole compounds as nitrification inhibitors” (BASF SE, priority 2015, dated 2020)

Test system: nitrification
Assay: Inhibition of nitrification in field soil (48 well plate, ammonium sulfate, colour reaction read at 540 nm)
Details: for IN (best inhibition value obtained for a compound): soil, room temperature, up to 72 hrs
Experimental: The compounds of the invention have been tested as follows in terms of the inhibition of nitrification:
Soil was sampled fresh from a field (e.g. Limburgerhof), dried and sieved through a 500 μm sieve. Approximately 200 mg of soil were placed into each well of a 48 well plate. Compounds, or DMSO alone, were added at a concentration of 10 ppm, dissolved in 1% DMSO. 6 μmol ammonium sulfate was added per well as well as 4.8 mg NaClO3.
Subsequently, the samples were incubated at room temperature for up to 72 hrs. After the incubation period 64 mg KCl were added and mixed. 25 μl of the supernatant were placed into a fresh plate and 260 μl of a color reaction solution (from Merck Nr 1.11799.0100) were added.
Measurements were taken with a Tecan plate Reader at 540 nm wavelength.
Inhibition is calculated as x=% activity compared to control, and converted to 100-x to give the value of inhibition, rather than activity.

Row | SMILES | IN (best inhibition value obtained for a compound) (dose of 10 ppm) [%] | further results
1 | C#CCn1nc(O)c2ccccc21 [Compound A-14] | 59 | –
2 | C#CCn1cccn1 [Compound A-19] | 45 | –
3 | C#CCn1ncc2c1C(=O)c1ccccc1C2=O [Compound A-33] | 44 | –
4 | C#CCn1ncc(C(=O)O)c1C [Compound A-42] | 17 | –
5 | C#CCn1nc(C)c(OC(C)=O)c1C [Compound A-44] | – | IN (best inhibition value obtained for a compound) (dose of 5±1 ppm): 59%
6 | C=C=Cn1ccc(C)n1 [Compound B-5] | >10 | –
7 | C=C=Cn1nccc1C [Compound B-6] | >10 | –
8 | C#Cc1ccccc1 [Phenylacetylene, phenylacetylene, reference compound] | – | IN (inhibition value) (reference compound, same conditions, dose of 10 ppm): 7%
